Experimental data as given in patent US20110015080A1, “Solution-based methods for RNA expression profiling” (MASSACHUSETTS INSTITUTE OF TECHNOLOGY, priority 2005, published 2011).
“And” between values parts separate entries of the source, which are not always exact repeats. Identical values can stand only once.

System: HL60 (human promyelocytic leukemia) cells
Experiment: LMA-FlexMAP analysis of microtiter well cultures of HL60 cells treated with tretinoin or DMSO, KNN classification
[1] = HL60 cells treated with tretinoin, Experiment 3, replicate samples
[2] = HL60 microtiter plate wells tretinoin40-47 (replicates)

## CC1=C(/C=C/C(C)=C/C=C/C(C)=C/C(=O)O)C(C)(C)CCC1 [tretinoin, all-trans-retinoic acid]
[1]
  FlexMap signal, ACTB (LUA#91): 2538 and 2604.5 and 452 and 812 and 1191 and 2112.5 and 2760 and 2845 and 2391 and 144.5
  FlexMap signal, GAPDH_3 (LUA#95): 2330.5 and 2534 and 579 and 1017 and 1438 and 2495.5 and 2680 and 2718 and 2148 and 172
  FlexMap signal, GAPDH_5 (LUA#93): 1699 and 1739.5 and 261.5 and 439.5 and 741 and 1388 and 1787 and 1865 and 1714 and 97
  FlexMap signal, GAPDH_M (LUA#94): 1342.5 and 1462 and 221.5 and 396 and 590.5 and 1179.5 and 1602 and 1586 and 1267.5 and 79
  FlexMap signal, NM_000147 (LUA#29): 987 and 1072 and 95 and 188.5 and 323 and 713 and 1109 and 1156 and 905 and 43
  FlexMap signal, NM_000211 (LUA#39): 1072 and 1160 and 204.5 and 356 and 501 and 939 and 1215 (2×) and 924.5 and 109
  FlexMap signal, NM_000250 (LUA#87): 141 and 157 and 46 and 52 and 67 and 115 and 159 and 166 and 131 and 38
  FlexMap signal, NM_000414 (LUA#22): 384 and 448 and 48 and 74 and 114 and 272.5 and 479 and 477.5 and 378 and 35
  FlexMap signal, NM_000433 (LUA#28): 454 and 548 and 62 and 105 and 169 and 371.5 and 580.5 and 600.5 and 406 and 32
  FlexMap signal, NM_000584 (LUA#30): 1878.5 and 1840 and 240 and 426 and 663 and 1369.5 and 1886 and 1908.5 and 1555 and 96.5
  FlexMap signal, NM_000884 (LUA#81): 670 and 692 and 126 and 209 and 304 and 612 and 794.5 and 804 and 624 and 58
  FlexMap signal, NM_001034 (LUA#67): 170 and 171 and 42 and 47 and 73 and 122 and 178 and 184 and 155 and 33
  FlexMap signal, NM_001101 (LUA#34): 2622 and 2644 and 799 and 1279 and 1711 and 2759.5 and 2895 and 2880 and 2335 and 235
  FlexMap signal, NM_001469 (LUA#79): 988.5 and 1104 and 141.5 and 246.5 and 395 and 731.5 and 1124 and 1134 and 921 and 75.5
  FlexMap signal, NM_001498 (LUA#18): 397 and 391.5 and 40 and 71 and 121 and 262 and 386 and 382 and 279 and 30
  FlexMap signal, NM_001684 (LUA#23): 52.5 and 60 (2×) and 30 and 31.5 and 31 and 52 and 66 and 49 and 25
  FlexMap signal, NM_001948 (LUA#84): 63 and 62 and 34 and 38 (2×) and 50 and 61 and 59 and 54 and 33
  FlexMap signal, NM_002166 (LUA#25): 169.5 and 207 and 37 and 51 and 74 and 132 and 188.5 and 211 and 170 and 29
  FlexMap signal, NM_002467 (LUA#90): 571 and 552.5 and 136 and 162 and 239 and 409.5 and 576 and 644 and 527 and 86
  FlexMap signal, NM_002468 (LUA#40): 367 and 421 and 57.5 and 93 and 132.5 and 303 and 450 and 473.5 and 357 and 36.5
  FlexMap signal, NM_002539 (LUA#74): 276 and 278.5 and 46 and 74 and 209 and 271 and 323.5 and 225 and 36
  FlexMap signal, NM_002624 (LUA#36): 1359 and 1343 and 253.5 and 500 and 700.5 and 1234 and 1402 and 1395 and 1167.5 and 79
  FlexMap signal, NM_002664 (LUA#38): 1922 and 1934 and 383 and 702 and 1051.5 and 1832 and 2052 and 2064 and 1635.5 and 101
  FlexMap signal, NM_002970 (LUA#42): 1316 and 1443 and 164 and 329 and 528 and 1106 and 1508 and 1570.5 and 1247 and 57
  FlexMap signal, NM_002982 (LUA#45): 3449 and 3440 and 1175 and 1759 and 2328 and 3359 and 3548 and 3612.5 and 3101 and 373
  FlexMap signal, NM_003132 (LUA#68): 431 and 428 and 74 and 117.5 and 194 and 367 and 461 and 482 and 344 and 38
  FlexMap signal, NM_003172 (LUA#19): 208 and 227 and 45 and 68 and 97 and 199 and 234 and 250 and 179 and 33
  FlexMap signal, NM_003332 (LUA#43): 2312 and 2346.5 and 591 and 1003 and 1446 and 2239 and 2492 and 2467 and 2041 and 177.5
  FlexMap signal, NM_003581 (LUA#62): 40.5 and 39.5 and 40 (2×) and 36 and 42 and 47 and 46.5 and 46 and 33
  FlexMap signal, NM_003644 (LUA#17): 181.5 and 53 and 72 and 75.5 and 220 and 238.5 and 179 and 39
  FlexMap signal, NM_003752 (LUA#82): 116 and 113 and 54 (2×) and 66 and 93 and 105 and 123 and 96 and 41
  FlexMap signal, NM_003879 (LUA#24): 65 and 69 and 23 and 29 and 36 and 51 and 77 and 76 and 59 and 34
  FlexMap signal, NM_004079 (LUA#21): 113 and 124 (2×) and 34 and 41 and 53 and 88 and 122 and 121 and 30
  FlexMap signal, NM_004095 (LUA#59): 169 and 205 and 46 and 66 and 86.5 and 166.5 and 221 and 208.5 and 147 and 36
  FlexMap signal, NM_004106 (LUA#44): 1458 and 1423 and 235 and 457 and 672 and 1276 and 1500 and 1506 and 1234 and 68
  FlexMap signal, NM_004134 (LUA#76): 268 and 286 and 47.5 and 67 and 93 and 182 and 284 and 297 and 240 and 36
  FlexMap signal, NM_004152 (LUA#31): 1845 and 1993 and 319 and 601 and 837 and 1645 and 2020 and 2157.5 and 1685 and 90.5
  FlexMap signal, NM_004526 (LUA#88): 153.5 and 172 and 43 and 61 and 76.5 and 187.5 and 191 and 138 and 37
  FlexMap signal, NM_004602 (LUA#32): 255 and 274.5 and 61 and 87.5 and 116 and 185 and 270 and 293 and 288 and 46
  FlexMap signal, NM_004723 (LUA#20): 281 and 329 and 61 and 105 and 151 and 271.5 and 350 and 352 and 258 and 37
  FlexMap signal, NM_004741 (LUA#89): 397 and 326 and 70 and 77 and 131 and 204.5 and 315 and 415.5 and 300.5 and 58
  FlexMap signal, NM_004759 (LUA#37): 242 and 139.5 and 32 and 41 and 60 and 119 and 132.5 and 213 and 159 and 28
  FlexMap signal, NM_005008 (LUA#77): 242 and 301.5 and 53.5 and 87 and 114 and 239.5 and 315 and 316 and 232 and 41
  FlexMap signal, NM_005375 (LUA#86): 548 and 553 and 131 and 196 and 334 and 547.5 and 602 and 531 and 86
  FlexMap signal, NM_005566 (LUA#85): 539.5 and 610.5 and 89 and 117 and 183 and 197.5 and 597 and 632 and 489 and 45
  FlexMap signal, NM_005914 (LUA#60): 525.5 and 804.5 and 102 and 218.5 and 314 and 594 and 914 and 889 and 716.5 and 44
  FlexMap signal, NM_005915 (LUA#72): 46 and 42 and 25 and 27 and 30 and 35 and 40 and 37 and 38 and 29
  FlexMap signal, NM_005952 (LUA#66): 204 and 199 and 43 and 56 and 74 and 143 and 200 and 197.5 and 156 and 34
  FlexMap signal, NM_005980 (LUA#73): 160 and 157 (2×) and 32 and 43 and 52 and 102.5 and 166 and 132 and 34
  FlexMap signal, NM_006019 (LUA#35): 810 and 792 and 73 and 140 and 227 and 497 and 747 and 787.5 and 655 and 34
  FlexMap signal, NM_006138 (LUA#56): 87 and 95 and 37 and 40 and 49 and 67 and 97 and 102.5 and 86 and 38
  FlexMap signal, NM_006432 (LUA#27): 1364 and 1394 and 190 and 358.5 and 574 and 1118 and 1397.5 and 1403 and 1160 and 68
  FlexMap signal, NM_006452 (LUA#71): 52 and 60 and 25 and 37 and 37.5 and 43 and 57 and 71 and 44 and 23.5
  FlexMap signal, NM_006985 (LUA#58): 48 and 59 (2×) and 31 and 32 and 37.5 and 45.5 and 52 and 46.5 and 30
  FlexMap signal, NM_007282 (LUA#16): 46 and 62.5 and 27 and 29 and 30 and 42 and 53 and 61.5 and 58 and 28
  FlexMap signal, NM_014333 (LUA#26): 613 and 656.5 and 74 and 128 and 211 and 427 and 674 and 705 and 572 and 41
  FlexMap signal, NM_014366 (LUA#61): 217 and 294 and 38 and 61 and 89.5 and 191 and 291.5 and 299.5 and 235 and 33.5
  FlexMap signal, NM_014573 (LUA#70): 138.5 and 144.5 and 40 and 45 and 56 and 93 and 156 and 161.5 and 123 and 38.5
  FlexMap signal, NM_015201 (LUA#57): 208 and 198 and 40 and 49 and 64 and 139 and 197 and 228 and 156 and 31
  FlexMap signal, NM_018115 (LUA#63): 1217 and 860.5 and 109.5 and 234 and 409 and 710.5 and 896 and 1206.5 and 927 and 61
  FlexMap signal, NM_018164 (LUA#69): 148.5 and 149 and 37 and 46 and 67 and 139 and 150 and 156.5 and 133 and 36
  FlexMap signal, NM_018256 (LUA#83): 638.5 and 688.5 and 178.5 and 177 and 268 and 371 and 633 and 804.5 and 779 and 151
  FlexMap signal, NM_018890 (LUA#33): 737 and 769 and 82 and 151.5 and 240 and 534.5 and 760 and 762 and 652 and 41
  FlexMap signal, NM_019058 (LUA#75): 102 and 129 and 37 and 48 and 56 and 90 and 126 and 97 and 34
  FlexMap signal, NM_020117 (LUA#78): 487 and 502 and 65 and 114 and 184 and 371 and 519 and 543 and 415 and 45
  FlexMap signal, NM_021103 (LUA#41): 629 and 2096 and 467.5 and 781.5 and 992 and 1953 and 2465.5 and 2408 and 495 and 142
  FlexMap signal, NM_021203 (LUA#80): 445.5 and 471 and 65 and 109 and 165 and 355 and 480 and 514 and 369 and 46
  FlexMap signal, NM_021974 (LUA#64): 776 and 891 and 136.5 and 255.5 and 403 and 781.5 and 929 and 940 and 667.5 and 55
  FlexMap signal, NM_024045 (LUA#65): 112 and 127.5 and 35 and 40 and 57 and 92.5 and 135.5 and 110 and 29
  FlexMap signal, TFRC (LUA#92): 252 and 255 and 54 and 66 and 90 and 168 and 256 and 272 and 213 and 45
[2]
  ACTB LUA#91 FlexMap level: 344 and 2113 and 2976 and 3020 and 2200 and 2601 and 2521 and 1195
  GAPDH_3 LUA#95 FlexMap level: 1659 and 3754 and 4065 and 4240 and 3880 and 3379 and 3353.5 and 1707.5
  GAPDH_5 LUA#93 FlexMap level: 238 and 1501 and 2205.5 and 2064 and 1482 and 1768.5 and 1737 and 843
  GAPDH_M LUA#94 FlexMap level: 642 and 3318 and 3783.5 and 3886 and 3205 and 3303 and 3248 and 1513
  NM_000070 LUA#2 FlexMap level: 84.5 and 400 and 756 and 769.5 and 717.5 and 638.5 and 741 and 490.5
  NM_000147 LUA#29 FlexMap level: 48 and 184 and 276.5 and 330.5 and 274 and 275 and 318 and 288
  NM_000153 LUA#10 FlexMap level: 35 and 90 and 138 (2×) and 150 and 120 and 171.5 and 223
  NM_000211 LUA#39 FlexMap level: 81 and 598.5 and 1229 and 1162.5 and 868 and 1061 and 973 and 440.5
  NM_000250 LUA#87 FlexMap level: 261.5 and 1504 and 2135 and 2243 and 1820 and 2094 and 1863 and 1124
  NM_000414 LUA#22 FlexMap level: 79.5 and 477 and 902 and 920 and 503 and 800 and 838 and 646
  NM_000433 LUA#28 FlexMap level: 53 and 234 and 451.5 and 466 and 318 and 421 and 370.5 and 244.5
  NM_000584 LUA#30 FlexMap level: 45 and 189 and 470 and 461 and 435 and 379 and 597 and 352
  NM_000632 LUA#12 FlexMap level: 60 and 298 and 544 and 994 and 932 and 486 and 500 and 525.5
